Measurements from PubChem BioAssay (NCI).
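Following 48 hours of exposure in 96-well plates, responses at five concentrations were used to interpolate endpoints linearly. TGI denotes the concentration required for complete inhibition of growth.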

Key:
Assay in all cases: NCI tumour cell line growth inhibition, 48 h
SNB-19 CNS = tested on: SNB-19 CNS
HOP-92 NSCLC = tested on: HOP-92 NSCLC
SW-620 colon = tested on: SW-620 colon
IGROV1 ovarian = tested on: IGROV1 ovarian
TK-10 renal = tested on: TK-10 renal
NCI-H23 lung = tested on: NCI-H23 lung
KM12 colon = tested on: KM12 colon
OVCAR-4 ovarian = tested on: OVCAR-4 ovarian
OVCAR-5 ovarian = tested on: OVCAR-5 ovarian
PC-3 prostate = tested on: PC-3 prostate
A498 renal = tested on: A498 renal

Row | SMILES | TGI (SNB-19 CNS) [µM] | TGI (HOP-92 NSCLC) [µM] | TGI (SW-620 colon) [µM] | TGI (IGROV1 ovarian) [µM] | TGI (TK-10 renal) [µM] | TGI (NCI-H23 lung) [µM] | TGI (KM12 colon) [µM] | TGI (OVCAR-4 ovarian) [µM] | TGI (OVCAR-5 ovarian) [µM] | TGI (PC-3 prostate) [µM] | TGI (A498 renal) [µM]
1 | CC(C)(C)OC(=O)N[C@H]1CC(O)c2ccccc2N(CC(=O)O)C1=O (some centres undefined) | > 100 | > 100 | > 100 | > 100 | > 100 | > 100 | > 100 | > 100 |  |  | 
2 | O=C(NC(=S)Nc1ccc2c(c1)Sc1ccccc1O2)c1ccc([N+](=O)[O-])cc1 | > 100 | > 100 | > 100 | > 100 | > 100 | > 100 | > 100 | > 100 | > 100 | > 100 | 
3 | COc1ccc(NC(=S)N/N=C\c2ccc(NC(C)=O)cc2)cc1 | > 100 | > 100 | > 100 | > 100 | > 100 | > 100 | > 100 | > 100 | > 100 | > 100 | 
4 | O=c1ccn(CC2(CO)CCCC2)c(=O)[nH]1 |  | > 100 | > 100 | > 100 | > 100 | > 100 | > 100 | > 100 | > 100 | > 100 | > 100
5 | NC1=NC2=c3ccccc3=C(c3cnccn3)C2(c2cnccn2)c2ccccc21 (centres undefined) | > 100 | > 100 | > 100 | > 100 | > 100 | > 100 | > 100 | > 100 | > 100 |  | 69.1
6 | Cc1c2ccnc(C(=O)NCCN(C)C)c2cc2c3cc(O)ccc3n(C)c12 | 5.16 | 3.59 | 4.36 | 6.72 | 9.05 | 1.7 | 5.41 | 2.22 | 6.29 | 2 | 
7 | CC(=O)OCC(C)C1=C(OC(C)=O)C(=O)C2(C)C/C=C(/C)CC/C=C(\C)CCC(OC(C)=O)C(C)CCC12 (centres undefined) | 43.9 | 20.3 | 40.7 | 48.3 | 39 |  | 36.9 | 82.3 | 25.4 | 30.2 | 
8 | NC(=O)C(=O)c1ncn(Cc2ccccc2)c1N | > 100 |  | > 100 | > 100 | > 100 | > 100 | > 100 | > 100 | > 100 | > 100 | > 100
9 | CCCCCCCCOCC(O)COC(C)C (centres undefined) | > 100 | 81.8 | > 100 | > 100 | > 100 | 88 |  | > 100 | > 100 |  | > 100
10 | O=C(Cn1cc(-c2ccccc2)nn1)NC1CCCCC1 | > 100 | > 100 | > 100 | > 100 | > 100 | > 100 | > 100 | > 100 | > 100 | > 100 | 
11 | COc1cc2nc(Nc3cccc(Br)c3)nc(Nc3cccc(Br)c3)c2cc1OC | 32.3 | 29.5 | 45.8 | 30.1 | 39.3 | 33.3 | 36.7 | 30.9 | 70.9 | 41.6 | 
12 | Cn1c(NNc2ccccc2)cc(=O)[nH]c1=O | > 100 | > 100 | > 100 | > 100 | > 100 | > 100 | 65.3 | > 100 | > 100 | > 100 | 
13 | O=C(c1ccccc1)c1ccc(N2C(=O)/C(=C/Cc3ccco3)N=C2c2ccccc2)c(N2C(=O)/C(=C/Cc3ccco3)N=C2c2ccccc2)c1 | > 100 | > 100 | > 100 | > 100 | > 100 |  | > 100 | > 100 | > 100 | > 100 | > 100
14 | COc1ccccc1C1C(Cl)C(=O)N1n1cnc2ccccc2c1=O (centres undefined) | > 100 |  | > 100 | > 100 | > 100 | > 100 | > 100 | > 100 | > 100 |  | 
15 | CCN(CC)C(=O)Cn1c(-c2ccccc2)cc2ccccc21 | > 100 | 77.7 | > 100 | > 100 | > 100 | > 100 | > 100 | > 100 | > 100 | > 100 | 
16 | c1ccc2c(c1)NCCC(=NC1CCCCC1)N2 | > 100 |  | > 100 | > 100 | > 100 | > 100 | > 100 | > 100 | > 100 | > 100 | > 100
17 | Nc1ccc2nc3c(nc2c1)C(=O)c1ccccc1-3 | > 100 | > 100 | > 100 | > 100 | > 100 | > 100 | > 100 | > 100 | > 100 | > 100 | 
18 | Oc1ccc([Te]CCNCC[Te]c2ccc(O)cc2)cc1 | > 100 |  | > 100 | > 100 | 90.7 | 23.2 | > 100 |  | 37.7 |  | 46.6
19 | Clc1c(Cl)c(Cl)c2c(nnn2C2CCCO2)c1Cl (centres undefined) |  |  |  | > 100 | > 100 | 49.3 |  | 54.5 | > 100 | > 100 | 88.7
20 | Nc1ccccc1Nc1ccccc1C(=O)[O-].Nc1ccccc1Nc1ccccc1C(=O)[O-].[Zn+2] | > 100 |  | > 100 | > 100 | > 100 | > 100 | > 100 |  | > 100 |  | > 100
21 | CCOP(=O)(OCC)C(C)(C)N(C)/C(F)=N/C(F)(F)F |  | > 100 | > 100 | > 100 | > 100 | > 100 | > 100 | > 100 | > 100 | > 100 | 
22 | COc1ccc(N=C2S/C(=N\C(=Nc3ccccc3)SCc3ccccc3)N(c3ccccc3)C2=Nc2ccc(OC)cc2)cc1 | > 100 | > 100 | > 100 | > 100 | > 100 | > 100 | > 100 |  |  | > 100 | 
